The target of experiment [1] is T1, human recombinant adrenergic α2A receptor (Homo sapiens, UniProt P08913).
T1 construct: expressed in transfected cells; host or cells: insect Sf9 cells
T1 sequence (P08913 1-465): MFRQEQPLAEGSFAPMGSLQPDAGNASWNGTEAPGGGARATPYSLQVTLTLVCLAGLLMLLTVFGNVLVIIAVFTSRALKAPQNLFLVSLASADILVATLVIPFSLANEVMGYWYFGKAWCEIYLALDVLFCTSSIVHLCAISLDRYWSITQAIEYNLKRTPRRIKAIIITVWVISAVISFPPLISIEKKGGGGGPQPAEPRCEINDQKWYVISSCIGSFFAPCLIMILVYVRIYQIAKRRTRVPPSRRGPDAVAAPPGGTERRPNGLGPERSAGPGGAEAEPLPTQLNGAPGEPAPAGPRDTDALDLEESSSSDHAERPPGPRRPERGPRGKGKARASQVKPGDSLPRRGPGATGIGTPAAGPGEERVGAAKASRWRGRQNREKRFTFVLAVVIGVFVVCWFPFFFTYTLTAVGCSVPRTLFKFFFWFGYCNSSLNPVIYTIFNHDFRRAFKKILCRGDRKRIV
The experiment can be described thus: Adrenergic alpha2A radioligand binding ([3H]MK-912). As to conditions: compound at 1 μM; read-out: Adrenergic (1 μM) α2A, percent inhibition of specific binding. As for the experimental part:
To evaluate in radioligand binding assays the activity of compounds of the invention, human recombinant adrenergic α2A receptor expressed in insect Sf9 cells (Uhlen S et al. J Pharmacol Exp Ther. 271:1558, 1994) in a modified Tris-HCl buffer (50 mM Tris-HCl, pH 7.4, 12.5 mM MgCl2, 2 mM EDTA) was used. Compounds of invention were incubated with 1 nM [^3H]MK-912 for 60 min. at 25° C. MK912 is (2S-trans)-1,3,4,5′,6,6′,7,12b-octahydro-1′,3′-dimethyl-spiro[2 h-benzofuro [2,3-a]quinolizine-2,4′ (1′H)-pyrimidin]-2′ (3′H)-one hydrochloride Non-specific binding was estimated in the presence of 10 μM WB-4101 (2-(2,6-Dimethoxyphenoxyethyl)aminomethyl-1,4-benzodioxane hydrochloride). Receptor proteins were filtered and washed, the filters were then counted to determine [^3H]MK-912 specifically bound. Compounds were screened at 1 μM or lower, using 1% DMSO as vehicle. Biochemical assay results are presented as the percent inhibition of specific binding in Table 5.

Experiment [2] addresses T2, human recombinant serotonin (5-Hydroxytryptamine) 5-HT2A receptor (Homo sapiens, UniProt P28223).
T2 construct: expressed in transfected cells; host or cells: CHO-K1 cells
In words: Serotonin 5-HT2A radioligand binding ([3H]Ketanserin). As to conditions: compound at 1 μM; read-out: Serotonin (1 μM) 5-HT2A, percent inhibition of specific binding. The procedure, abridged: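 Percent inhibition of specific [3H]ketanserin (0.5 nM) binding, filtration read-out, with compounds at ≤1 μM (1% DMSO vehicle). Receptor source: recombinant human 5-HT2A in CHO-K1 cells, 50 mM Tris-HCl pH 7.4, 60 min, 25 °C; 1 μM mianserin gives nonspecific binding.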

Experiment [3] concerns the target T3, human recombinant adrenergic α2B receptor (Homo sapiens, UniProt P18089).
T3 construct: expressed in transfected cells; host or cells: CHO-K1 cells
T3 sequence (P18089 1-450): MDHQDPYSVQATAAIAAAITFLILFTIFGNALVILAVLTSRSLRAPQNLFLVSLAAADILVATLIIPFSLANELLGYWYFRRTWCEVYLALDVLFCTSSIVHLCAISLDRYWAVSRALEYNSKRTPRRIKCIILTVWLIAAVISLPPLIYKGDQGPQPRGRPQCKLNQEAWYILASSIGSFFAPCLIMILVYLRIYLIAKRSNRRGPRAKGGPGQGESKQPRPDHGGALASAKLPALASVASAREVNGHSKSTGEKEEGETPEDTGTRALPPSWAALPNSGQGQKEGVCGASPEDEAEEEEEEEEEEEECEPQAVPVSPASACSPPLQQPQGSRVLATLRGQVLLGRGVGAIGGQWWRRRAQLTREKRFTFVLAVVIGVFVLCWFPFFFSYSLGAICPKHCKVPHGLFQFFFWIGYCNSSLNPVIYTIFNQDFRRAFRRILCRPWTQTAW
The experiment can be described thus: Adrenergic alpha2B radioligand binding ([3H]Rauwolscine). As to conditions: compound at 1 μM; read-out: Adrenergic (1 μM) α2B, percent inhibition of specific binding. As for the experimental part: To evaluate in radioligand binding assays the activity of compounds of the invention, human recombinant adrenergic α2B receptor expressed in Chinese hamster ovary (CHO-K1) cells (Uhlen S et al. Eur J. Pharmacol. 343(1):93, 1998) in a modified Tris-HCl buffer (50 mM Tris-HCl, pH 7.4, 12.5 mM MgCl2, 1 mM EDTA, 0.2% BSA) was used. Compounds of the invention were incubated with 2.5 nM [^3H]Rauwolscine for 60 min. at 25° C. Non-specific binding was estimated in the presence of 10 μM Prozosin. Receptor proteins were filtered and washed, the filters were then counted to determine [^3H]Rauwolscine specifically bound. Compounds were screened at 1 μM or lower, using 1% DMSO as vehicle. Biochemical assay results are presented as the percent inhibition of specific binding in Table 5.

Experiment [4] has as its target T4, human recombinant dopamine D2L receptor (Homo sapiens, UniProt P14416).
T4 construct: expressed in transfected cells; host or cells: CHO cells
The experiment can be described thus: Dopamine D2L radioligand binding ([3H]Spiperone). As to conditions: compound at 1 μM; read-out: Dopamine (1 μM) D2L, percent inhibition of specific binding. Put shortly: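 Binding measured by filtration and counting, reported as % inhibition of specific [3H]spiperone binding (0.16 nM tracer; 10 μM haloperidol for nonspecific). Compounds tested at ≤1 μM in 1% DMSO for 120 min at 25° C against CHO-expressed human D2L in pH 7.4 Tris-HCl buffer.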

T4 sequence (P14416 whole entry): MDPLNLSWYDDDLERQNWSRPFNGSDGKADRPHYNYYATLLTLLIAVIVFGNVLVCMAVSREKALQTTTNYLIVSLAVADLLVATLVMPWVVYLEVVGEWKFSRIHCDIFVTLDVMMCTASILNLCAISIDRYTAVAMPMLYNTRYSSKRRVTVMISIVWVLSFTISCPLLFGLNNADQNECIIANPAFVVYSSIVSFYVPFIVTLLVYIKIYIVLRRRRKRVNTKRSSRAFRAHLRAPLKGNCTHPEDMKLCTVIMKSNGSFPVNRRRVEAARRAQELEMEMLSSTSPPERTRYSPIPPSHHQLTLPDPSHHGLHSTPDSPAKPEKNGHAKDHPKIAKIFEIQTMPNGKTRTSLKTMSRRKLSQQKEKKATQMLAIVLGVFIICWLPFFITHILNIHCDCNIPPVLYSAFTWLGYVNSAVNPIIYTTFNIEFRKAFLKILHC
T2 sequence (P28223 whole entry): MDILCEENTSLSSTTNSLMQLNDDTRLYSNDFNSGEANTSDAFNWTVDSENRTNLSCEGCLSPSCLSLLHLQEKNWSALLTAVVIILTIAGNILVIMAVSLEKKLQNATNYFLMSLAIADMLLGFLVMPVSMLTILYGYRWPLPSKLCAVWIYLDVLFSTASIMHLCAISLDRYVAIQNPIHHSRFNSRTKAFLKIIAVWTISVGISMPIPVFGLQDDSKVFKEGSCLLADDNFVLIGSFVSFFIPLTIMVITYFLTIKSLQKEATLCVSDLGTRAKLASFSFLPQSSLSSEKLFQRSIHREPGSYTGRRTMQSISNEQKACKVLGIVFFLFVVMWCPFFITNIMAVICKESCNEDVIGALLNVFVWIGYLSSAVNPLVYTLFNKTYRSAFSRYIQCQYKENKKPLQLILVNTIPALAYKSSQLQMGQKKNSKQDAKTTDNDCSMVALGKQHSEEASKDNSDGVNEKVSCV

As a reminder, the inhibition is the drop in the measured response relative to a control, in per cent. With `C/C(=C\n1c2c(c3cc(C)ccc31)CCN(C)CC2)c1ccc(F)cc1` [Compound No. 34, 6-((E)-2-(4-fluorophenyl)prop-1-enyl)-1,2,3,4,5,6-hexahydro-3,9-dimethylazepino[4,5-b]indole], the inhibition at 1 µM in experiment [1] was 94%; in experiment [2], 98%; in experiment [3], 110%; in experiment [4], 90%.

Consider `CN1CCc2c(n(CC(O)c3ccccc3)c3ccc(Cl)cc23)CC1` (stereo not shown) [Compound No. 24, 2-(9-chloro-2,3,4,5-tetrahydro-3-methylazepino[4,5-b]indol-6(1H)-yl)-1-phenylethanol], for which the inhibition at 1 µM in experiment [1] came out at 100%; in experiment [2], 98%; in experiment [3] it was 99%; in experiment [4], 41%.

Consider `Cc1ccc2c(c1)c1c(n2CC(O)c2ccncc2)CCN(C)CC1` (stereo not shown) [Compound No. 43, 2-(2,3,4,5-tetrahydro-3,9-dimethylazepino[4,5-b]indol-6(1H)-yl)-1-(pyridin-4-yl)ethanol], for which the inhibition at 1 µM in experiment [1] was 78%; in experiment [2] it was 93%; in experiment [3] it was 107%; in experiment [4], 4%.

For the molecule `Cc1ccc2c(c1)c1c(n2CCc2ccncc2)CCN(C)CC1` [Compound No. 6, 1,2,3,4,5,6-hexahydro-3,9-dimethyl-6-(2-(pyridin-4-yl)ethyl)azepino[4,5-b]indole], the inhibition at 1 µM worked out at 93% in experiment [1], 96% in experiment [2], 106% in experiment [3] and 30% in experiment [4].

Take `CN1CCc2c(n(CC(=O)Nc3ccccc3)c3ccc(Cl)cc23)CC1` [Compound No. 73, 2-(9-chloro-2,3,4,5-tetrahydro-3-methylazepino[4,5-b]indol-6(1H)-yl)-N-phenylacetamide]: the inhibition at 1 µM in experiment [1] was 28%; in experiment [2], 18%; in experiment [3], 21%; in experiment [4], -14%.

For the molecule `Cc1ccc2c(c1)c1c(n2CCc2ccccn2)CCN(C)CC1` [Compound No. 9, 1,2,3,4,5,6-hexahydro-3,9-dimethyl-6-(2-(pyridin-2-yl)ethyl)azepino[4,5-b]indole], the inhibition at 1 µM is 88% in experiment [1], 96% in experiment [2], 90% in experiment [3] and 20% in experiment [4].

In the case of `CN1CCc2c(n(CC(O)c3cccnc3)c3ccc(Cl)cc23)CC1` (stereo not shown) [Compound No. 18, 2-(9-chloro-2,3,4,5-tetrahydro-3-methylazepino[4,5-b]indol-6(1H)-yl)-1-(pyridin-3-yl)ethanol], the inhibition at 1 µM amounted to 92% in experiment [1], 88% in experiment [2], 98% in experiment [3] and 3% in experiment [4].

`Cc1ccc2c(c1)c1c(n2CCc2ccc(Cl)cc2)CCN(C)CC1` [Compound No. 28, 6-(4-chlorophenethyl)-1,2,3,4,5,6-hexahydro-3,9-dimethylazepino[4,5-b]indole]: the inhibition at 1 µM in experiment [1] came to 96%; in experiment [2] it was 100%; in experiment [3] it was 103%; in experiment [4], 67%.

Turning to `CN1CCc2c(n(CCc3ccccc3)c3ccc(Cl)cc23)CC1` [Compound No. 56, 9-chloro-1,2,3,4,5,6-hexahydro-3-methyl-6-phenethylazepino[4,5-b]indole], the inhibition at 1 µM in experiment [1] stood at 95%; in experiment [2] it was 97%; in experiment [3], 91%; in experiment [4] it was 62%.

As to `Cc1ccc2c(c1)c1c(n2CC(O)c2cccnc2)CCN(C)CC1` (stereo not shown) [Compound No. 19, 2-(2,3,4,5-tetrahydro-3,9-dimethylazepino[4,5-b]indol-6(1H)-yl)-1-(pyridin-3-yl)ethanol], the inhibition at 1 µM worked out at 69% in experiment [1], 80% in experiment [2], 90% in experiment [3] and 12% in experiment [4].

Turning to `Cc1ccc2c(c1)c1c(n2CCc2ccccc2F)CCN(C)CC1` [Compound No. 63, 6-(2-fluorophenethyl)-1,2,3,4,5,6-hexahydro-3,9-dimethylazepino[4,5-b]indole], the inhibition at 1 µM in experiment [1] turned out to be 96%; in experiment [2] it was 91%; in experiment [3] it was 73%; in experiment [4], 61%.

Regarding `COc1ccc(C(O)Cn2c3c(c4cc(C)ccc42)CCN(C)CC3)cc1F` (stereo not shown) [Compound No. 68, 1-(3-fluoro-4-methoxyphenyl)-2-(2,3,4,5-tetrahydro-3,9-dimethylazepino[4,5-b]indol-6(1H)-yl)ethanol], the inhibition at 1 µM was found to be 99% in experiment [1], 99% in experiment [2], 100% in experiment [3] and 40% in experiment [4].

Regarding `Cc1ccc2c(c1)c1c(n2C(=O)Cc2ccc(F)cc2)CCN(C)CC1` [Compound No. 285, 1-(3,9-dimethyl-2,3,4,5-tetrahydroazepino[4,5-b]indol-6(1H)-yl)-2-(4-fluorophenyl) ethanone], the inhibition at 1 µM worked out at 91% in experiment [1], 100% in experiment [2], 75% in experiment [3] and 21% in experiment [4].

As for `CN1CCc2c(n(CC(O)c3ccc(Cl)cc3)c3ccc(Cl)cc23)CC1` (stereo not shown) [Compound No. 16, 2-(9-chloro-2,3,4,5-tetrahydro-3-methylazepino[4,5-b]indol-6(1H)-yl)-1-(4-chlorophenyl)ethanol], the inhibition at 1 µM turned out to be 105% in experiment [1], 101% in experiment [2], 99% in experiment [3] and 37% in experiment [4].

Take `Cc1ccc2c(c1)c1c(n2CC(C)(O)c2ccc(F)cc2)CCN(C)CC1` (stereo not shown) [Compound No. 14, 2-(4-fluorophenyl)-1-(2,3,4,5-tetrahydro-3,9-dimethylazepino[4,5-b]indol-6(1H)-yl)propan-2-ol]: the inhibition at 1 µM in experiment [1] was found to be 90%; in experiment [2], 101%; in experiment [3], 100%; in experiment [4] it was 38%.

For `CN1CCc2c(n(CC(=O)N3CCCCC3)c3ccc(Cl)cc23)CC1` [Compound No. 57, 2-(9-chloro-2,3,4,5-tetrahydro-3-methylazepino[4,5-b]indol-6(1H)-yl)-1-(piperidin-1-yl)ethanone], the inhibition at 1 µM in experiment [1] was -1%; in experiment [2], 10%; in experiment [3], 87%; in experiment [4], 10%.

These data come from patent US9481676B2, “Azepino[4,5-B]indoles and methods of use” (Medivation Technologies, Inc., priority 2008, dated 2016).
